The target of assay [1] is T1, Kappa-type opioid receptor (Homo sapiens, UniProt P41145). In words: SAR analysis of small molecule agonists of the kappa opioid receptor via a luminescent beta-arrestin assay - Set 3. [Related pubchem assays (depositor defined):AID1777, AID1785, AID1786, AID1966, AID2133, AID2136, AID2284, AID2500]. In kind it is functional.
The target of assay [2] is T2, E3 ubiquitin-protein ligase XIAP (Homo sapiens, UniProt P98170). The assay can be described thus: Counter Screen using XIAP-Bir3 for Chemical Antagonists of Bir1/2 domains of IAP-family anti-apoptotic proteins. [Related pubchem assays (depositor defined):AID1018, AID1449, AID1514, AID1638, AID1749, AID1750, AID488957, AID488963]. (In general: The purpose of a counterscreen is to sort out artefacts and off-target activity.)

Assay [3] has as its target T2, E3 ubiquitin-protein ligase XIAP. In words: XIAP antagonists, biochemical, IAP family, fluorescence polarization (AID 1018). In kind it is functional.
Assay [4] concerns the target Peroxisome proliferator-activated receptor gamma/Nuclear receptor coactivator 1 (Homo sapiens, UniProt P37231). The assay can be described thus: TR-FRET dose response biochemical High Throughput Screening assay for agonists of the steroid receptor coactivator 1 (SRC-1) recruitment by the peroxisome proliferator-activated receptor gamma (PPAR gamma): non-selective agonists. [Related pubchem assays (depositor defined):AID1300, AID1808, AID504735, AID631]. It counts as protein assay.

The target in assay [5] is Peroxisome proliferator-activated receptor gamma/Nuclear receptor coactivator 3 (Homo sapiens, UniProt P37231). In words: TR-FRET dose response biochemical High Throughput Screening assay for agonists of the steroid receptor coactivator 3 (SRC-3) recruitment by the peroxisome proliferator-activated receptor gamma (PPAR gamma): non-selective agonists. [Related pubchem assays: 1301 (Confirmation screen.), 1048 (Primary screen.)]. It counts as functional. (Time-resolved FRET reads energy transfer from a long-lived donor to a nearby acceptor.)

Assay [6] addresses Peroxisome proliferator-activated receptor gamma/Nuclear receptor coactivator 2 (Homo sapiens, UniProt P37231). In words: TR-FRET dose response biochemical High Throughput Screening assay for agonists of the steroid receptor coactivator 2 (SRC-2) recruitment by the peroxisome proliferator-activated receptor gamma (PPAR gamma): non-selective agonists. [Related pubchem assays: 1297, 1032 ]. In kind it is functional.

The target of assay [7] is FAD-linked sulfhydryl oxidase ALR (Homo sapiens, UniProt P55789). In words: inhibitors of human ALR sulfhydryl oxidase, dose response, biochemical, H2O2 detection, luminescence, cherry-pick (AID 493248).
The target in assay [8] is T1, Kappa-type opioid receptor. The assay can be described thus: KOR antagonists by imaging, SAR follow-up, image-based (AID 2348). In kind it is functional.
Assay [9] concerns the target T1, Kappa-type opioid receptor. In words: KOR agonist analogs, imaging readout, SAR follow-up, image-based (AID 2359). It counts as functional.
The target of assay [10] is T3, Mu-type opioid receptor (Homo sapiens, UniProt P35372). The assay can be described thus: MOR antagonists, SAR follow-up, image-based (AID 2420).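 Also: compounds added before stimulation of receptor with agonist DAMGO.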 It counts as functional.
The target of assay [11] is T4, Delta-type opioid receptor (Homo sapiens, UniProt P41143). The assay can be described thus: HTS Image-Based Screen for Agonists of the DOR Receptor. [Related pubchem assays (depositor defined):AID1777, AID1786, AID2133]. It counts as functional.
Assay [12] deals with T3, Mu-type opioid receptor. In words: HTS Image-Based Screen for Agonists of the MOR Receptor. [Related pubchem assays (depositor defined):AID1777, AID1785, AID1786, AID2133]. It counts as functional.
Assay [13] concerns the target T4, Delta-type opioid receptor. In words: HTS Image-Based Screen for Antagonists of the DOR Receptor. [Related pubchem assays (depositor defined):AID1777, AID1785, AID1786, AID2133]. In kind it is functional.
In assay [14] the target is T3, Mu-type opioid receptor. In words: MOR agonists by imaging, SAR follow-up, image-based (AID 2352). In kind it is functional.
Assay [15] deals with T4, Delta-type opioid receptor. In words: DOR agonists, SAR follow-up, image-based (AID 2370). In kind it is functional.
Assay [16] concerns the target T4, Delta-type opioid receptor. The assay can be described thus: DOR antagonists, SAR follow-up, image-based (AID 2357). In kind it is functional.
In assay [17] the target is T1, Kappa-type opioid receptor. In kind it is functional.
Assay [18] concerns the target T1, Kappa-type opioid receptor. It counts as functional. The source holds these as a separate data set.
In assay [19] the target is T1, Kappa-type opioid receptor. In words: SAR analysis of small molecule agonists of the kappa opioid receptor via a luminescent beta-arrestin assay. [Related pubchem assays (depositor defined):AID1777, AID1786, AID1966, AID2133, AID2136, AID2348, AID2352, AID2357, AID2359, AID2370, AID2420, AID2478, AID2491, AID2492, AID2493, AID2497, AID2498, AID2500, AID449737, AID488822, AID488842]. In kind it is functional.

The target of a further assay is T5, Coagulation factor XII (Homo sapiens, UniProt P00748).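 Also: activated factor XIIa alpha cleaving a fluorogenic AMC peptide substrate; inhibitor potency from loss of enzyme activity.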
T5 sequence (P00748 whole entry): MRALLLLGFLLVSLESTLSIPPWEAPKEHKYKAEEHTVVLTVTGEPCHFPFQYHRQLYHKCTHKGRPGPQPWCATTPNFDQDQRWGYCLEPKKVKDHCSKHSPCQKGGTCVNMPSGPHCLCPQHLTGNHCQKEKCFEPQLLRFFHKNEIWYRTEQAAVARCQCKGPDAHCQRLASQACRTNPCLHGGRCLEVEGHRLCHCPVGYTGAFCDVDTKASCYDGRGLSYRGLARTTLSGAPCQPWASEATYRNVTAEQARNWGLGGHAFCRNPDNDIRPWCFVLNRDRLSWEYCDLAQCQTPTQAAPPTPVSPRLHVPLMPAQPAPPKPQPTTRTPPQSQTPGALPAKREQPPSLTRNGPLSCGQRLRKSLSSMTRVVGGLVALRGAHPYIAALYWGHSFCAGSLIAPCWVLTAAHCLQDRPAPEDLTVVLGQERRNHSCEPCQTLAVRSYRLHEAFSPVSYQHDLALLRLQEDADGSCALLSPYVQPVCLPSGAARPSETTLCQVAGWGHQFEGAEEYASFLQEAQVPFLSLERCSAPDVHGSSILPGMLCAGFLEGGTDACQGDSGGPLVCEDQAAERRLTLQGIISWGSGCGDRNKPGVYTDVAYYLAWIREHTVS
It counts as functional.

The target of assay [20] is T6, Runt-related transcription factor 1/Core-binding factor subunit beta (Homo sapiens, UniProt Q01196+Q13951). The assay can be described thus: inhibitors of RUNX1 Runt–CBFb-SMMHC binding, biochemical, TR-FRET (AID 1438). It counts as protein assay.
For assay [21], the target named is T7, Neuropeptide Y receptor type 1 (Homo sapiens, UniProt P25929).
T7 sequence (P25929 whole entry): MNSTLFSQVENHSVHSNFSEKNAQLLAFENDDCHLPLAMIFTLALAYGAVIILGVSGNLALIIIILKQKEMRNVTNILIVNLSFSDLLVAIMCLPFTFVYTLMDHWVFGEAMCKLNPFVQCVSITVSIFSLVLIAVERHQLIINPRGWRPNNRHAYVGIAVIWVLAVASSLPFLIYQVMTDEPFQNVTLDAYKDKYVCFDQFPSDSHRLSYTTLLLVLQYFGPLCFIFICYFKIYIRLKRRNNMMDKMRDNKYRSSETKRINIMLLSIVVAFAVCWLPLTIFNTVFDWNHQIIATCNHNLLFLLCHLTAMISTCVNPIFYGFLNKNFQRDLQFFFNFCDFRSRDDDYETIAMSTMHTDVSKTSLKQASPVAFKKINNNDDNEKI
The assay can be described thus: Fluorescence-based counterscreen for agonists of NPY-Y2: cell-based high-throughput dose response assay for agonists of NPY-Y1. It counts as functional.

The test system of the next assay is HEK293. In words: Fluorescence-based counterscreen for potentiators or agonists of NPY-Y2: cell-based high-throughput dose response assay to identify inhibitors of cyclic nucleotide gated ion channel (CNGC) activity. In this assay, the parental HEK293 cell line transfected with a cyclic-nucleotide gated ion channel (CNGC)-based cAMP sensor is used to measure inhibition of isoproterenol-induced CNGC activity by test compound. The following applies: Homo sapiens. In kind it is functional.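 Also: stimulus is 1 µM isoproterenol at EC100 plus PDE inhibitor Ro 20-1724 at 25 µM.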

For assay [22], the target named is T8, Neuropeptide Y receptor type 2 (Homo sapiens, UniProt P49146).
T8 sequence (P49146 whole entry): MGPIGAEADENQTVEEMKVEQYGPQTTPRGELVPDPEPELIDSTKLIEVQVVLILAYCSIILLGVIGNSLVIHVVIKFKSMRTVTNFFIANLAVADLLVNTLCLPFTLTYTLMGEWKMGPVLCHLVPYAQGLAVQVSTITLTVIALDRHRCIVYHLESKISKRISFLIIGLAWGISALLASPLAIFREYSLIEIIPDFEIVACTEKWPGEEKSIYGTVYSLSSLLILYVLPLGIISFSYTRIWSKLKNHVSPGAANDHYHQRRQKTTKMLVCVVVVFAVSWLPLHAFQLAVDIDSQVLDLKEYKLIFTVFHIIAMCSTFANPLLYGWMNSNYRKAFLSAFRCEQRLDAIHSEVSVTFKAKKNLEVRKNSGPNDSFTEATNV
In words: Fluorescence-based cell-based high-throughput dose response assay for agonists of NPY-Y2. [Related pubchem assays: 1703 (Screening assay (CNGC inhibitors).), 1359 (Screening assay (NPY-Y2 potentiators or agonists).), 1304 (Screening assay (NPY-Y1 potentiators or agonists).), 1710 (Screening assay (NPY-Y2 agonists).), 1791 (Summary AID.)]. In kind it is functional.

For assay [23], the target named is T6, Runt-related transcription factor 1/Core-binding factor subunit beta. In words: inhibitors of RUNX1 Runt–CBFb-SMMHC binding, primary screen, biochemical, FRET, Cerulean-Runt, Venus-CBFb-SMMHC, uHTS (AID 1434).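 Also: partner is the CBFb-SMMHC leukemia fusion protein rather than wild-type CBFb.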 In kind it is protein assay.
For assay [24], the target named is Sphingosine 1-phosphate receptor 1 (Homo sapiens, UniProt P21453). The assay can be described thus: Fluorescence-based counterscreen assay for S1P4 agonists: Cell-based dose response high throughput screening assay to identify agonists of the Sphingosine 1-Phosphate Receptor 1 (S1P1). [Related pubchem assays (depositor defined):AID1509, AID1523, AID1801, AID463107, AID463118, AID463119, AID463122, AID463123, AID463129, AID463225, AID504400, AID504460]. In kind it is functional.

Assay [25] addresses Sphingosine 1-phosphate receptor 4 (Homo sapiens, UniProt O95977). The assay can be described thus: Fluorescence dose response cell-based high throughput screening assay for agonists of the Sphingosine 1-Phosphate Receptor 4 (S1P4). [Related pubchem assays: 1509 (Primary screen.), 1523 (Confirmation screen in triplicates.)]. It counts as functional.

Calls of active or inactive are those of the source.

T1 sequence (P41145 whole entry): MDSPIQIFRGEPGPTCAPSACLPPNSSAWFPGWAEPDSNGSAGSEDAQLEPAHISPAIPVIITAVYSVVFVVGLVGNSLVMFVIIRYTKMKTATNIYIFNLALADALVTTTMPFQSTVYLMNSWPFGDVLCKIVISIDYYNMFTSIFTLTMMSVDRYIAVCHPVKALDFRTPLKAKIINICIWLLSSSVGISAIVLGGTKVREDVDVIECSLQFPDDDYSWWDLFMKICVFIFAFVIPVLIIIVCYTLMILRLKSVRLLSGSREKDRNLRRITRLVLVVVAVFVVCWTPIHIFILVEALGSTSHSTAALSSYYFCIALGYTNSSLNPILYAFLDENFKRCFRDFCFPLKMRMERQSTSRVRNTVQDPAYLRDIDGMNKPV
T3 sequence (P35372 whole entry): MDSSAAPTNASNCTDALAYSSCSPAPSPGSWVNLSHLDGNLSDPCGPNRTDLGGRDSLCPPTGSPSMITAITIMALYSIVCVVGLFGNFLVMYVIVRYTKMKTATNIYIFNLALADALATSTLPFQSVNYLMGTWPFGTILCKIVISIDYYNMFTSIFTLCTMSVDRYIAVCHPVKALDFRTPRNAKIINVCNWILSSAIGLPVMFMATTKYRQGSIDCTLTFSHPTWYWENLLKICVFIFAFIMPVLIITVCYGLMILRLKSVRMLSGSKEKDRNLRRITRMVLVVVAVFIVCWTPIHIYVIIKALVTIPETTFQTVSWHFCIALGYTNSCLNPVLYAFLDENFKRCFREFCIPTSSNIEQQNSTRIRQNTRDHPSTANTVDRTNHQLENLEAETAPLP
T4 sequence (P41143 whole entry): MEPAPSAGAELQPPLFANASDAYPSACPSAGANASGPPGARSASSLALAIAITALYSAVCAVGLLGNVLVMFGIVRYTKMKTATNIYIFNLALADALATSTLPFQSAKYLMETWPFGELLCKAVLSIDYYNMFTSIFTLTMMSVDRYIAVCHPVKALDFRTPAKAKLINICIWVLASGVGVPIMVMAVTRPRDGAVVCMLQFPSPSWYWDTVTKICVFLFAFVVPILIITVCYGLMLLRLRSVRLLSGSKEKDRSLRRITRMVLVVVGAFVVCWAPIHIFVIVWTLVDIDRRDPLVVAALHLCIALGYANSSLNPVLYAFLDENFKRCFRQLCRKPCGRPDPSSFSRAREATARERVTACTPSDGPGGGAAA
T6 sequence (Q01196 whole entry): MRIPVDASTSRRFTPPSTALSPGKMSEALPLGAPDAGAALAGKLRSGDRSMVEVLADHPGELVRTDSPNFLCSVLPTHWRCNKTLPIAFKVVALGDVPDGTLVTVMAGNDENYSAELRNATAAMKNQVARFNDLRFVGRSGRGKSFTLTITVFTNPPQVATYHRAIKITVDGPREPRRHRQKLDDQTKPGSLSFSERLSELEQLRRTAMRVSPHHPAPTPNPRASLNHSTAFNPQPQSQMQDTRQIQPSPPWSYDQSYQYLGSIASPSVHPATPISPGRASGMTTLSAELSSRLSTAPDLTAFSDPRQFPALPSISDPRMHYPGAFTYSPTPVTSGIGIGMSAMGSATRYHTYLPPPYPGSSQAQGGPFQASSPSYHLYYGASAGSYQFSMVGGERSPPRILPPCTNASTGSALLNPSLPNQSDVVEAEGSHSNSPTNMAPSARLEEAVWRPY
T6 sequence (Q13951 whole entry): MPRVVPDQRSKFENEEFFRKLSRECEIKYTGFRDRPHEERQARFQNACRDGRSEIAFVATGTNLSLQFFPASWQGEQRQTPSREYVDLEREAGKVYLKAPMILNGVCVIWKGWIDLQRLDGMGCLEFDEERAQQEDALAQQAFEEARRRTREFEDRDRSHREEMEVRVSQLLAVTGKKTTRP
T2 sequence (P98170 whole entry): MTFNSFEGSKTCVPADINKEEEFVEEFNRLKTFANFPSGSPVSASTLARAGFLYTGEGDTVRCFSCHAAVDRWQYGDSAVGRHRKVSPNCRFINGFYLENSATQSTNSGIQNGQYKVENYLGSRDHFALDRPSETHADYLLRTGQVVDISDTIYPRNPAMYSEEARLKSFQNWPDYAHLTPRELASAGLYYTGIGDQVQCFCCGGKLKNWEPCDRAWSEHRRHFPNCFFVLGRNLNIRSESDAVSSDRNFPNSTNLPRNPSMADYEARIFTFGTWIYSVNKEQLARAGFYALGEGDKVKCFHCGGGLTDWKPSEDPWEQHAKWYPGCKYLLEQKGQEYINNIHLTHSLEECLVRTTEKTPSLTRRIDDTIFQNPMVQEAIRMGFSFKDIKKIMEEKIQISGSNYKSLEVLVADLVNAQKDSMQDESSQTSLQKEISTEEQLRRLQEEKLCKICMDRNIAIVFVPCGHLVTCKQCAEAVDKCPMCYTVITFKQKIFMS
Chain of Peroxisome proliferator-activated receptor gamma/Nuclear receptor coactivator 1 (P37231 whole entry): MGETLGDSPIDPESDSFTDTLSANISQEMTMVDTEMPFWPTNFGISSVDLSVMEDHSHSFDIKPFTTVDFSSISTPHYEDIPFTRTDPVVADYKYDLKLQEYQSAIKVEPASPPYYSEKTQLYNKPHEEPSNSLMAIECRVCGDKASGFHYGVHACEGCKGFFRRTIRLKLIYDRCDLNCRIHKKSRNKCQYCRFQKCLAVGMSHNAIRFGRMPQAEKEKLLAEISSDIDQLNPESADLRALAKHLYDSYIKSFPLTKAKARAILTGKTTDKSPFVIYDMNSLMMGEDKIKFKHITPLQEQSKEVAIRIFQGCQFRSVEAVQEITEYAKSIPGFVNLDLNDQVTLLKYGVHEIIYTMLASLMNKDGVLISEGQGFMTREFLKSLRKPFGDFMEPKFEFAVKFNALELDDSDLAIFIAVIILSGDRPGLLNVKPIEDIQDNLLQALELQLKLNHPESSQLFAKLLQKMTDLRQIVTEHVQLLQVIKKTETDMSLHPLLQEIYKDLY
Chain of Peroxisome proliferator-activated receptor gamma/Nuclear receptor coactivator 1 (Q15788 whole entry, further chain): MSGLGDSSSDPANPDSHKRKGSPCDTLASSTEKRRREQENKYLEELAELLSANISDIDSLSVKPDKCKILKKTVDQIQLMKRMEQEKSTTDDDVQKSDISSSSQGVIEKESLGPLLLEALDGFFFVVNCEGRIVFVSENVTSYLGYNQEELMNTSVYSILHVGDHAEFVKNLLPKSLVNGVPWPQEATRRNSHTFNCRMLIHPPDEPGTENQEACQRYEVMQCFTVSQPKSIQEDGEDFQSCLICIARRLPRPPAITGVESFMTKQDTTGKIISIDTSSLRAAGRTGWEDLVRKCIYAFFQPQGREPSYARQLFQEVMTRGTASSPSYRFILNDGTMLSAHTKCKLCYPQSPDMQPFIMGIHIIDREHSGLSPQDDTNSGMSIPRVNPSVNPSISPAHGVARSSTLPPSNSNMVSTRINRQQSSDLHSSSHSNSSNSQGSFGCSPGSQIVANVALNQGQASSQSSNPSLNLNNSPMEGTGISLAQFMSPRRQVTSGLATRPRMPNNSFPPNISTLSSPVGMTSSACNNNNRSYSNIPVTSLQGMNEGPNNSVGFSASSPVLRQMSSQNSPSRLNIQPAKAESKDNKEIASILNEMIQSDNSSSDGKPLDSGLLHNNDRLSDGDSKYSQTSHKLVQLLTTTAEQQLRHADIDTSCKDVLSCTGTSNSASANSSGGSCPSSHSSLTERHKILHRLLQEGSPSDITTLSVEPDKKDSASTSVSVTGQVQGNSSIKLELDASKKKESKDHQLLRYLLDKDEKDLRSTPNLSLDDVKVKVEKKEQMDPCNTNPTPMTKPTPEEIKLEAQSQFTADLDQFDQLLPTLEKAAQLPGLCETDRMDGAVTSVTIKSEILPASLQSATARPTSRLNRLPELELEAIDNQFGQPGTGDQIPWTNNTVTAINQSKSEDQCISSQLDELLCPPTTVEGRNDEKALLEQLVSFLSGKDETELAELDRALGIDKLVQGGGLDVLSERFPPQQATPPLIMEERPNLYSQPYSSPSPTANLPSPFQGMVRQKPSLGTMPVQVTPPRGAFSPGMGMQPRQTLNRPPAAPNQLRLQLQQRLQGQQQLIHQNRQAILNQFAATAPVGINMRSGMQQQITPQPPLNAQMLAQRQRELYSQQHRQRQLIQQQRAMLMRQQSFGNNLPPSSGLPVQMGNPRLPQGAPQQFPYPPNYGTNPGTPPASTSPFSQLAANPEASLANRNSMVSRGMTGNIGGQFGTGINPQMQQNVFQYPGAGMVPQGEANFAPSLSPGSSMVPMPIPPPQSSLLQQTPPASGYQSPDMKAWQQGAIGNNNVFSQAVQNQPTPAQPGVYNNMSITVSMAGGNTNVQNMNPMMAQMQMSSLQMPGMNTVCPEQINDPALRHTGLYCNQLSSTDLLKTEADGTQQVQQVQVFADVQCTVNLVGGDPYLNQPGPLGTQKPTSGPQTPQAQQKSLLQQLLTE
Chain of Sphingosine 1-phosphate receptor 1 (P21453 whole entry): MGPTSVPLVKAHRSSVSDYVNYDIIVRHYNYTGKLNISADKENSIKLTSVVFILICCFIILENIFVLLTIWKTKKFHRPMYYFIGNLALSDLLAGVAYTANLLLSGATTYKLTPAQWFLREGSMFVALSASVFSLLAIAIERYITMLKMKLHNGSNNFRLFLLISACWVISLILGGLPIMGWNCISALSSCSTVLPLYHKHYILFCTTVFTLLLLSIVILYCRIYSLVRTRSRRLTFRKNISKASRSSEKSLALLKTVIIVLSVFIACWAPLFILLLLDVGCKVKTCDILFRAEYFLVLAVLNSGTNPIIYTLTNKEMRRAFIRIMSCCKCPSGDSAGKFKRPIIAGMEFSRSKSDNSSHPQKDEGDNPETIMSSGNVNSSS
Chain of FAD-linked sulfhydryl oxidase ALR (P55789 whole entry): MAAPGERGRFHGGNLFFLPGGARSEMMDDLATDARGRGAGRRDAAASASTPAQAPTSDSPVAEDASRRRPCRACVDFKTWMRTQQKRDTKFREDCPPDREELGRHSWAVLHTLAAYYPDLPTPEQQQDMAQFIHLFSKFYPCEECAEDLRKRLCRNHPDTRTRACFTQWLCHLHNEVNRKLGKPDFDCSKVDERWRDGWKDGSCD

The term EC50 denotes the concentration needed to bring the measured effect to its halfway point. Take `COc1ccc(Cn2c(SCc3ccc(Br)cc3)nnc2-c2ccccn2)cc1`: the EC50 in [1] is > 20 µM (inactive).

What is called IC50 is the concentration at which inhibition is half-maximal. `CCOc1ccc(NC(=S)NCCCN2CCN(C3CCCCC3)CC2)cc1`: the IC50 in assay [2] is > 100 µM (inactive); in assay [3], > 100 µM (not active).

By AC50 is commonly meant the concentration giving half of the maximal activity seen. With `Cc1c(Cl)c(-c2nnc(S)n2-c2ccccc2)nn1C`, the EC50 in assay [4] was > 79.4 µM (inactive); in assay [5], > 79.4 µM (not active); in assay [6], > 79.4 µM (not active). Also, the AC50 in assay [7] is < 0.014 µM (active).

With `CCC(C)(C(=O)NC1CCCCC1)N(Cc1ccco1)C(=O)c1ccccn1` (configuration not stated), the IC50 is > 32 µM (inactive) in [8]; > 32 µM (inactive) on Mu-type opioid receptor [10]; > 32 µM (inactive) in [13]; > 32 µM (inactive) in assay [16]; > 50 µM (inactive) at Coagulation factor XII. In addition, the EC50 in [9] is 0.168 µM (active); in [11], > 32 µM (inactive); on Mu-type opioid receptor [12], > 32 µM (inactive); at Mu-type opioid receptor [14] it was > 32 µM (inactive); in assay [15], > 32 µM (inactive); in [17], under 0.5 µM. In addition, the figures for the EC50 in assay [18] and in assay [19] were 0.251 µM and 0.645 µM (active), respectively.

As for `Cc1cc(/C=N/NC(=O)Cn2c3ccccc3c(=O)c3ccccc32)c(C)n1-c1ccc(Cl)cc1`, the IC50 is 11.6 µM (active) in [20] and 4.69 µM (active) in assay [23]. In addition, the values for the EC50 (in [21]; with HEK293; in assay [22]) were > 35.4 µM (not active), 3.28 µM (active) and > 35.4 µM (not active), respectively.

For `CCNC(=O)NC(=O)C(C)OC(=O)c1c(C)nn(Cc2ccccc2)c1Cl` (configuration not stated), the EC50 in assay [24] is > 49.8 µM (inactive); in [25] it was 49.8 µM (not active).
